Reference: patent US11554127B2, “Synergistic antitumor effect of Bcl-2 inhibitor combined with rituximab and/or bendamustine or Bcl-2 inhibitor combined with CHOP” (ASCENTAGE PHARMA (SUZHOU) CO., LTD., priority 2018, dated 2023)
Where two headings read alike, the source gives them in different places.

Assays:
OCI-LY8 cells = test: in vitro experiment, sensitivity of OCI-LY8 cells; assay type: cell-based; conditions: OCI-LY8 human DLBCL cell line
Description: (1) The experimental method was as described in Example 1. In the in vitro experiment, OCI-LY8 cells were also human DLBCL cell lines sensitive to Compound 6 treatment, with an IC50 value of 0.006±0.002 μM. Therefore, this experiment used OCI-LY8 cells to establish a mouse xenograft tumor model (A. Esteve-Arenys et al. The BET bromodomain inhibitor CP1203 overcomes resistance to ABT-199 (venetoclax) by downregulation of BFL-1/A1 in in vitro and in vivo models of MYC+/BCL2+ double hit lymphoma. Oncogene 37(14). January 2018), and thereby evaluated the anti-tumor effect of Compound 6 in combination with rituximab.

[1] = tested on: human OCI-LY8 (DLBCL) mouse xenograft tumor; assay type: in vivo
Description: (§1) All animal experiments were strictly in accordance with the laboratory animal use and management practices of GenePharma Co., Ltd. and Ascentage Pharma Group Co., Ltd. The calculation of relevant parameters referred to the Chinese CFDA “Guidelines for Non-Clinical Research Techniques of Cytotoxic Antitumor Drugs”.
(§2) The animal body weight and tumor size were measured twice weekly during the experiment. The conditions and death of the animals were observed every day. Routine monitoring included the effects of tumor growth and treatment on normal animal behaviors, including activity, feeding and drinking situations, weight gain or loss, eyes, coat and other abnormalities in the experimental animals. The deaths and clinical symptoms observed during the experiment were recorded in the raw data. The entire operations of administration, measurement of mouse body weight and tumor volume were performed in a clean bench. Plasma and tumor tissues were collected, weighed and photographed after the end of the last administration according to the experimental protocol. Plasma and tumor samples were snap frozen and stored at −80° C.
(§3) Tumor volume (TV) was calculated as: TV=a×b2/2, in which a and b represented the length and width of the tumor as measured, respectively. The relative tumor volume (RTV) was calculated as: RTV=Vt/V1, in which V1 was the tumor volume at the time of grouping and administration, and Vt was the tumor volume measured on a day after administration. […] Change of body weight %=(measured body weight−body weight at the time of grouping)/body weight at the time of grouping×100%.
(§4) If the synergy factor was >1, there was a synergistic effect; if the synergistic factor=1, there was an additive effect; if the synergistic factor <1, there was an antagonistic effect.
Bendamustine was an FDA approved drug for the treatment of B-cell non-Hodgkin's lymphoma.

[2] = tested on: human Toledo (DLBCL) mouse xenograft tumor; assay type: in vivo; conditions: Compound 6 100 mg/kg p.o. qd×14 days; rituximab 4 mg/kg i.v. qw; day 15
Description: as §1, §2, §3, §4

DOHH2 = test: in vitro cell experiments, sensitivity of DOHH2 cell line; assay type: cell-based; conditions: DOHH2 human follicular lymphoma cell line
[3] = tested on: human DOHH2 (FL) mouse xenograft tumor; assay type: in vivo; conditions: day 15; for Tumor remission on the 15th day after administration: CR: animals with CR/group; for Tumor remission on the 15th day after administration: PR: animals with PR/group
Description: as §1, §2, §3, §4
CHOP included: cyclophosphamide, 20 mg/kg, intraperitoneal injection, administered on the 1st and 9th days; doxorubicin, 2 mg/kg, intravenous injection, administered on the 1st day; vincristine, 0.1 mg/kg, intravenous injection, administered on the 1st and 9th days; prednisone, 0.5 mg/kg, orally administered on the 1st day. […] The injected dose was 10 mL/kg (0.2 mL/mouse). The agent was dissolved in saline. […] The agent was dissolved in saline. Vincristine (batch number 0708v1) was purchased from Shenzhen Main Luck Pharmaceuticals Inc. Vincristine was administered by intravenous injection at a dose of 10 mL/kg (0.2 mL/mouse). The agent was dissolved in saline. Prednisone (batch number M0412A) was purchased from Dalian Meilun Biotechnology Co., Ltd. Prednisone was administered by oral gavage at a dose of 10 mL/kg (0.2 mL/mouse). […] The dosage formulations were prepared freshly prior to use. The preparation and use of the dosage formulations were always carried out under sterile conditions.

Toledo = test: in vitro cell experiments, sensitivity of Toledo cell line; assay type: cell-based; conditions: Toledo human DLBCL cell line
[4] = Cpd. 6 25 mg/kg p.o. qd×15d, day 11
[5] = Cpd. 6 50 mg/kg p.o. qd×15d, alone or + rituximab 4 mg/kg i.v. qw×2 wks, day 11
[6] = Cpd. 6 100 mg/kg p.o. qd×15d, alone or + rituximab 4 mg/kg i.v. qw×2 wks, day 11
[7] = Table 3: Cpd. 6 100 mg/kg p.o. qd, bendamustine 25 mg/kg i.v., rituximab 10 mg/kg i.v., day 11
[8] = Table 4: Cpd. 6 100 mg/kg p.o. qd, bendamustine 25 mg/kg, rituximab 10 mg/kg
[9] = Table 4: Cpd. 6 100 mg/kg, bendamustine 25 mg/kg, rituximab 10 mg/kg
[10] = Table 5: Cpd. 6 100 mg/kg, CHOP regimen
[11] = rituximab alone 4 mg/kg i.v. qw×2 wks, day 11

## O=C(NS(=O)(=O)c1ccc(NC[C@H]2COCCO2)c([N+](=O)[O-])c1)c1ccc(N2CCN(CC3=C(c4ccc(Cl)cc4)CC4(CCC4)CC3)CC2)cc1Oc1cnc2[nH]ccc2c1 [Compound 6, (S)-N-((4-(((1,4-dioxan-2-yl)methyl)amino)-3-nitrophenyl)sulfonyl)-2-((1H-pyrrolo[2,3-b]pyridin-5-yl)oxy)-4-(4-((6-(4-chlorophenyl)spiro[3.5]non-6-en-7-yl)methyl)piperazin-1-yl)benzamide]
OCI-LY8 cells
  IC50: 6 ± 2 nM
[1]; [4]
  RTV on the 11th day after administration (mean ± standard error): 6.87 ± 2.1 **^
  T/C (%) on the 11th day after administration: 37%
  Tumor status on the 11th day after administration (remission rate %): 0%
[1]; Cpd. 6 25 mg/kg p.o. qd×15d, day 11, animals with CR/group
  Tumor status on the 11th day after administration: CR: 0/5 CR,
[1]; Cpd. 6 25 mg/kg p.o. qd×15d, day 11, animals with PR/group
  Tumor status on the 11th day after administration: PR: 0/5
[1]; [5]
  RTV on the 11th day after administration (mean ± standard error): 6.19 ± 1.86
  T/C (%) on the 11th day after administration: 33%
[1]; Cpd. 6 50 mg/kg, alone or + rituximab 4 mg/kg, day 11
  Tumor status on the 11th day after administration (remission rate %): 0%
[1]; Cpd. 6 50 mg/kg, alone or + rituximab 4 mg/kg, day 11, animals with CR/group
  Tumor status on the 11th day after administration: CR: 0/5 CR,
[1]; Cpd. 6 50 mg/kg, alone or + rituximab 4 mg/kg, day 11, animals with PR/group
  Tumor status on the 11th day after administration: PR: 0/5
[1]; [6]
  RTV on the 11th day after administration (mean ± standard error): 5.54 ± 1.78
  T/C (%) on the 11th day after administration: 30%
[1]; Cpd. 6 100 mg/kg, alone or + rituximab 4 mg/kg, day 11
  Tumor status on the 11th day after administration (remission rate %): 0%
[1]; Cpd. 6 100 mg/kg, alone or + rituximab 4 mg/kg, day 11, animals with CR/group
  Tumor status on the 11th day after administration: CR: 0/5 CR,
[1]; Cpd. 6 100 mg/kg, alone or + rituximab 4 mg/kg, day 11, animals with PR/group
  Tumor status on the 11th day after administration: PR: 0/5
[1]; [7]
  RTV on the 11th day after administration (mean ± standard error): 5.54 ± 1.78
  T/C (%) on the 11th day after administration: 30%
[1]; Table 3: Cpd. 6 100 mg/kg, bendamustine 25 mg/kg, rituximab 10 mg/kg, day 11
  On the 11th day after administration (remission rate %): 0%
[1]; Table 3: Cpd. 6 100 mg/kg, bendamustine 25 mg/kg, rituximab 10 mg/kg, day 11, animals with CR/group
  On the 11th day after administration: CR: 0/5 CR,
[1]; Table 3: Cpd. 6 100 mg/kg, bendamustine 25 mg/kg, rituximab 10 mg/kg, day 11, animals with PR/group
  On the 11th day after administration: PR: 0/5
[2]
  RTV on the 15th day after administration (mean ± standard error): 4.93 ± 0.41 ^
  T/C (%) on the 15th day after administration: 38%
DOHH2
  sensitivity of cell line to Compound 6 treatment: relatively sensitive
[3]; [8]
  RTV on the 15th day after administration (mean ± standard error): 3.06 ± 0.79
  T/C (%) on the 15th day after administration: 28%
[3]; [9]
  Tumor remission rate on the 15th day after administration %: 0%
  Tumor remission on the 15th day after administration: CR: 0/5
  Tumor remission on the 15th day after administration: PR: 0/5
[3]; Table 5: Cpd. 6 100 mg/kg, CHOP (cyclophosphamide 20 mg/kg i.p. d1, d9; doxorubicin 2 mg/kg i.v. d1; vincristine 0.1 mg/kg i.v. d1, d9; prednisone 0.5 mg/kg p.o. d1)
  RTV on the 15th day after administration (mean ± standard error): 3.06 ± 0.79
[3]; [10]
  T/C (%) on the 15th day after administration: 28%
  Tumor remission rate on the 15th day after administration %: 0%
  Tumor remission on the 15th day after administration: CR: 0/5
  Tumor remission on the 15th day after administration: PR: 0/5
Toledo
  IC50: 49 ± 5 nM

## Rituximab [reference compound]
[1]; [11]
  RTV on the 11th day after administration (mean ± standard error): 1.38 ± 0.69
  T/C (%) on the 11th day after administration: 7%
[1]; rituximab alone 4 mg/kg, day 11
  Tumor status on the 11th day after administration (remission rate %): 80%
[1]; rituximab alone 4 mg/kg, day 11, animals with CR/group
  Tumor status on the 11th day after administration: CR: 0/5 CR,
[1]; rituximab alone 4 mg/kg, day 11, animals with PR/group
  Tumor status on the 11th day after administration: PR: 4/5
[1]; rituximab alone 4 mg/kg, day 11, animals with PR/group, listed as rituximab
  Tumor status on the 11th day after administration: PR: Four out of five
[1]; rituximab alone 4 mg/kg, day 22, after drug discontinuance
  RTV on the 22nd day after administration (mean ± standard error): 20.04 ± 5.38 ^
[2]
  RTV on the 15th day after administration (mean ± standard error): 8.99 ± 2.15 ^
  T/C (%) on the 15th day after administration: 69%
